According to patent publication US20120309683A1, “USE OF […] ADENYLATE CYCLASE-ACTIVATING POLYPEPTIDE (PACAP) AND PACAP ANALOGS AS ADJUNCTIVE TREATMENTS WITH INHIBITORS OF CALCINEURIN OR INHIBITORS OF THE […] TARGET OF RAPAMYCIN (mTOR) COMPLEXES” (The Administrators of the Tulane Educational Fund, priority 2010, published 2012):
Where two headings read alike, the source gives them in different places.

Tests used:
[1] = test system: HK-2 human kidney cells (human renal proximal tubule epithelial cells); assay: Cyclosporine A-induced injury (cytotoxicity) of HK-2 cells, lactate dehydrogenase in culture medium; format: cell-based; settings: PACAP38 10^−8 M added to medium of cyclosporine A-treated HK-2 cells
Experimental: The effects of PACAP38 at a concentration of 10^−8 M on cell injury were assessed by determining the activity of the cytoplasmic enzyme lactate dehydrogenase in the culture medium. Each value represents the mean plus/minus the standard error of four determinations. **p<0.01 compared to the cells treated only with cyclosporine A.

[2] = test system: human renal proximal tubule epithelial cells (HK-2); assay: TGF-β1 secretion by HK-2 cells treated with cyclosporine A; format: cell-based; settings: PACAP38 10^−8 M, cyclosporine A-treated HK-2 cells
Experimental: The effects of PACAP38 at a concentration of 10^−8 M on the production of TGF-β1 were assessed by determining the concentration of TGF-β1 in the culture medium. Each value represents the mean plus/minus the standard error of six determinations. **p<0.01 compared to the cells treated only with cyclosporine A.

[3] = test system: HK-2 human kidney cells; assay: Morphology of HK-2 cells, phase-contrast microscopy; format: cell-based; settings: 50 μM cyclosporine A and 10^−8 M PACAP38 for 48 hours
Experimental: The cells were visualized with an inverted phase-contrast microscope. The HK-2 human kidney cells were grown to 80% confluence. (A) The morphology of the HK-2 cells grown in normal medium.

[4] = test system: Male C57BL/6 mice; assay: Cyclosporine A-induced nephrotoxicity in mice (serum creatinine, kidney TGF-β1); format: in vivo; settings: cyclosporine A 5 mg/kg i.p., 20 μg PACAP38 i.p. 1 h before, 24 and 48 h
Experimental: The control group of mice was injected intraperitoneally with the same volume of saline as for the injections of cyclosporine A and PACAP38 on the same schedule. The mice were euthanized 24 hours after the final injection of PACAP38.
Male C57BL/6 mice were given a single intraperitoneal injection of 5 mg/kg of cyclosporine A. Twenty micrograms of PACAP38 were given intraperitoneally 1 hour before the injection of cyclosporine A and additional doses were given at 24 and 48 hours after the initial dose. The control group of mice was injected intraperitoneally with the same volume of saline as for the injections of cyclosporine A and PACAP38 on the same schedule. The mice were euthanized 24 hours after the final injection of PACAP38.

[5] = test system: HK-2 human kidney cells (human renal proximal tubule epithelial cells); assay: Tacrolimus-induced loss of viability of HK-2 cells, lactate dehydrogenase in intact cells; format: cell-based
Experimental: The HK-2 human kidney cells were cultured in Keratinocyte-Serum Free Medium supplemented with recombinant epidermal growth factor and bovine pituitary extract. […] Each value represents the mean plus/minus the standard error of five determinations. **p<0.01 and *p<0.05 compared to the cells treated only with tacrolimus.

[6] = test system: HK-2 human kidney cells (human renal proximal tubule epithelial cells); assay: Sirolimus-induced apoptotic cell death of HK-2 cells, histone-associated DNA fragmentation; format: cell-based
Experimental: The HK-2 human kidney cells were cultured in Keratinocyte-Serum Free Medium supplemented with recombinant epidermal growth factor and bovine pituitary extract. The dose-dependent inhibitory effect of PACAP38 on apoptotic cell death was assessed by the quantitative determination of cytoplasmic histone-associated DNA-fragmentation (mono- and oligonucleosomes) after exposure to 100 ng/ml of sirolimus for 24 hours. Each value represents the mean plus/minus the standard error of eight determinations. **p<0.01 and *p<0.05 compared to the cells treated only with sirolimus.

[7] = test system: Jurkat human T-lymphocyte cells; assay: Mitogen-stimulated secretion of interleukin-2 from Jurkat cells; format: cell-based; settings: PHA and PMA stimulated Jurkat cells
Experimental: The Jurkat human T-lymphocyte cells were cultured in RPMI 1640 medium supplemented with 10% heat-inactivated fetal calf serum. The Jurkat cells were stimulated with the mitogens phytohemagglutinin (PHA, 1 mg/ml) and phorbol 12-myristate 13-acetate (PMA, 50 ng/ml). […] Each value represents the mean plus/minus the standard error of eight determinations. **p<0.01 and *p<0.05 compared to the cells treated only with the mitogens.
(§1) However, when Jurkat cells were stimulated with PHA and PMA, large quantities of interleukin-2 could be detected in the medium (FIG. 9). […] At the highest dose (10^−5 M), PACAP38 inhibited the proliferation of the Jurkat cells by more than 50%.

[8] = test system: Jurkat human T-lymphocyte cells; assay: Proliferation of Jurkat cells, bromodeoxyuridine incorporation; format: cell-based
Experimental: The Jurkat human T-lymphocyte cells were cultured in RPMI 1640 medium supplemented with 10% heat-inactivated fetal calf serum. The Jurkat cells were stimulated with mitogens (1 mg/ml of PHA and 50 ng/ml of PMA).
as §1

[9] = test system: Jurkat human T-lymphocyte cells; assay: Inhibition by cyclosporine A of IL-2 secretion from Jurkat cells, enhancement by peptides; format: cell-based; settings: peptide added on top of cyclosporine, 24 hours
Experimental: The Jurkat human T-lymphocyte cells were cultured in RPMI 1640 medium supplemented with 10% heat-inactivated fetal calf serum. The Jurkat cells were stimulated with mitogens (1 mg/ml of PHA and 50 ng/ml of PMA). […] Each value represents the mean plus/minus the standard error of eight determinations. **p<0.01 and *p<0.05 compared to the cells treated only with the mitogens.
However, when Jurkat cells were stimulated with PHA and PMA, large quantities of interleukin-2 could be detected in the medium (FIG. 11).

[10] = test system: light-chain immunoglobulin-secreting human multiple myeloma cells; assay: Proliferation of multiple myeloma cells with sirolimus, bromodeoxyuridine incorporation; format: cell-based
Experimental: The light-chain immunoglobulin-secreting human multiple myeloma cells were cultured in RPMI 1640 medium supplemented with 10% non-inactivated fetal bovine serum and 0.05 mM 2-mercaptoethanol. The effects of PACAP38, PACAP27 and PACAP analogs on myeloma cell proliferation were assessed by determining incorporation of bromodeoxyuridine into DNA during cell division. The number of myeloma cells approximately doubled during the 24-hour incubation period in the absence of treatment with PACAP-like peptides. Four different concentrations, ranging from 10^−9 M to 10^−6 M, were tested for PACAP38, PACAP27 and each of the PACAP analogs. Each value represents the mean plus/minus the standard error of four determinations. **p<0.01 and *p<0.05 compared to the cells treated only with sirolimus.
The effects of PACAP38, PACAP27 and PACAP analogs on human cell proliferation were assessed by determining incorporation of bromodeoxyuridine into DNA during cell division. […] At the highest dose (10^−6 M), PACAP38 inhibited the proliferation by more than 50%.

[11] = test system: human renal proximal tubule epithelial cells; assay: Methotrexate-induced apoptotic cell death of human renal proximal tubule epithelial cells; format: cell-based; settings: methotrexate for 24 hours
Experimental: The inhibitory effects of PACAP38 on apoptotic cell death were assessed by the quantitative determination of cytoplasmic histone-associated DNA-fragmentation (mono- and oligonucleosomes) after exposure to methotrexate for 24 hours. Each value represents the mean plus/minus the standard deviation of six determinations. **p<0.01 and *p<0.05 compared to the cells treated only with methotrexate.
(§2) An ideal cytoprotective adjunctive agent should have the same effect as the main therapeutic agent against the intended therapeutic target, but protect the patient against the deleterious “off-target” effects of the main therapeutic. […] Furthermore, these experiments indicate that PACAP-like compounds would be beneficial as monotherapeutics for the treatment of leukemias. These experiments also indicate that combination therapy with PACAP-like compounds plus azathioprine or 6-mercaptopurine would result in an increased therapeutic index compared to azathioprine or 6-mercaptopurine, respectively, alone.

[12] = test system: human T-lymphocyte cells (Jurkat); assay: Methotrexate-induced apoptotic cell death of Jurkat cells; format: cell-based; settings: methotrexate and PACAP38 for 24 hours, same dose range
Experimental: The Jurkat cells were cultured in RPMI 1640 medium supplemented with 10% heat-inactivated fetal calf serum. The cells were treated with PACAP38 for 24 hours. The […] effects of PACAP38 on apoptotic cell death were assessed by the quantitative determination of cytoplasmic histone-associated DNA-fragmentation (mono- and oligonucleosomes) after exposure to methotrexate for 24 hours. Each value represents the mean plus/minus the standard error of eight determinations. **p<0.01 and *p<0.05 compared to the cells treated only with methotrexate.
as §2

[13] = test system: rat; settings: 48 hours, cited from earlier work
[14] = test system: rat; settings: 15-minute occlusion, continuous infusion; cited from earlier work
[15] = test system: IL-2 synthesis; settings: cited from earlier work

For PACAP38, which “cyclosporine A-induced cell death” value [1] is on record?
Its value is “almost completely prevented”.

What about the “cyclosporine A-induced secretion of TGF-β1 into the medium” value [2] of the same compound?
The value was “almost completely prevented the secretion of TGF-β1”.

What about the “restoration of the cell monolayer, confluence” value [3] of the same compound?
Its value is 70-80%.

What about the “number of grossly elongated and filopodia-formatted cells” value ([3]; versus cyclosporine A alone) of the same compound?
Its value is “marked reduction”.

What about the “increase in TGF-β1 in the kidney” value [4] of the same compound?
The value was “significantly reduced the increases”.

What about the “increase in serum creatinine” value [4] of the same compound?
Its value is “significantly reduced the increases”.

And the “potency as a renoprotectant relative to VIP” value ([5]; tacrolimus-treated HK-2 cells)?
Its value is “significantly more potent than VIP”.

What about the “loss of viable human renal proximal tubule epithelial cells caused by tacrolimus” value ([5]; various concentrations of peptide added to medium) of the same compound?
Its value is “significant dose-dependent reduction”.

What about the “sirolimus-induced apoptotic cell death” value ([6]; highest dose 10^−6 M) of the same compound?
Its value is “almost completely prevented”.

What about the “sirolimus-induced apoptotic cell death” value ([6]; varying concentrations of PACAP38) of the same compound?
The value was “significant dose-dependent reduction”.

And the “relative potency of PACAP38 and VIP on interleukin-2 secretion” value [7]?
Its value is “appeared to be equipotent”.

And the “mitogen-induced secretion of interleukin-2 into the medium” value ([7]; 24 hours)?
Its value is “large significant inhibition”.

What about the “inhibition of proliferation of Jurkat cells” value ([8]; highest dose 10^−5 M) of the same compound?
Its value is “more than 50%”.

And the “rate of proliferation of the human T-lymphocyte cell line” value ([8]; mitogen-stimulated Jurkat cells, 24 hours)?
The value was “significant dose-dependent inhibition”.

What about the “cyclosporine-induced inhibition of interleukin-2 secretion” value [9] of the same compound?
The value was “small dose-dependent enhancement”.

And the inhibition of proliferation ([10]; highest dose 10^−6 M)?
Its inhibition of proliferation is “more than 50%”.

What about the “rate of proliferation of the human B-lymphocyte cell line” value ([10]; multiple myeloma cells with sirolimus, 10^−9 M to 10^−6 M peptide, 24-hour incubation) of the same compound?
Its value is “significant dose-dependent inhibition”.

What about the “toxic side-effects of methotrexate on human renal proximal tubule epithelial cells (apoptotic cell death)” value [11] of the same compound?
The value was “potently inhibits the toxic side-effects of methotrexate”.

What about the “killing of human T lymphocyte cells by methotrexate (apoptotic cell death)” value [12] of the same compound?
Its value is “potently stimulates the killing”.

What about the “reduction of the infarct volume” value ([13]; continuous i.v. infusion beginning 4 hours after start of 2 h MCAO) of the same compound?
Its value is “approximately 51%”.

What about the “reduction of the infarct volume” value ([13]; continuous i.v. infusion beginning 8 hours after start of 2 h MCAO) of the same compound?
Its value is roughly 22%.

And the “reduction of the infarct volume” value ([13]; continuous i.v. infusion beginning 12 hours after start of 2 h MCAO)?
The value was roughly 12%.

And the “reduction in the number of CA1 pyramidal cells at day 7 post-occlusion” value [14]?
The value was “significantly reversed”.

Which “number of viable cells” value ([5]; tacrolimus alone, HK-2 cells) does the source give for `C=CC[C@@H]1/C=C(\C)C[C@H](C)C[C@H](OC)[C@H]2O[C@@](O)(C(=O)C(=O)N3CCCC[C@H]3C(=O)O[C@H](/C(C)=C/[C@@H]3CC[C@@H](O)[C@H](OC)C3)[C@H](C)[C@@H](O)CC1=O)[C@H](C)C[C@@H]2OC` [tacrolimus, reference compound] here?
Its value is “large significant decrease in the number of viable cells”.

What about the “potency as an inhibitor of IL-2 synthesis relative to cyclosporine A” value [15] of the same compound?
Its value is “about 100 -fold”.
